The NIST ThermoML archive (doi:10.1021/je300632p)

Test: xn = mol fraction of the nth substance listed
Details: 101 kPa, Liquid; for viscosity: Falling or rolling sphere viscometry; for mass density: Vibrating tube method

CCCCCO [pentan-1-ol] + CCO
Details	mass density [kg/m3]	viscosity [mPa·s]
293.15 K, x2 = 0	814.16	3.939
293.15 K, x2 = 0.101	812.81	3.557
293.15 K, x2 = 0.2	811.19	3.218
293.15 K, x2 = 0.3	809.41	2.884
293.15 K, x2 = 0.401	807.59	2.584
293.15 K, x2 = 0.5	805.44	2.272
293.15 K, x2 = 0.6	803.06	2.025
293.15 K, x2 = 0.7	800.17	1.784
293.15 K, x2 = 0.801	797.32	1.551
293.15 K, x2 = 0.901	793.6	1.349
298.15 K, x2 = 0	810.52	3.412
298.15 K, x2 = 0.101	809.14	3.098
298.15 K, x2 = 0.2	807.5	2.818
298.15 K, x2 = 0.3	805.67	2.541
298.15 K, x2 = 0.401	803.79	2.288
298.15 K, x2 = 0.5	801.6	2.021
298.15 K, x2 = 0.6	799.16	1.81
298.15 K, x2 = 0.7	796.21	1.603
298.15 K, x2 = 0.801	793.25	1.399
298.15 K, x2 = 0.901	789.45	1.222
303.15 K, x2 = 0	806.84	2.971
303.15 K, x2 = 0.101	805.44	2.713
303.15 K, x2 = 0.2	803.76	2.48
303.15 K, x2 = 0.3	801.9	2.249
303.15 K, x2 = 0.401	799.97	2.034
303.15 K, x2 = 0.5	797.73	1.805
303.15 K, x2 = 0.6	795.24	1.624
303.15 K, x2 = 0.7	792.21	1.444
303.15 K, x2 = 0.801	789.17	1.265
303.15 K, x2 = 0.901	785.28	1.109
308.15 K, x2 = 0	803.14	2.599
308.15 K, x2 = 0.101	801.71	2.385
308.15 K, x2 = 0.2	800	2.192
308.15 K, x2 = 0.3	798.1	1.997
308.15 K, x2 = 0.401	796.12	1.814
308.15 K, x2 = 0.5	793.83	1.617
308.15 K, x2 = 0.6	791.27	1.461
308.15 K, x2 = 0.7	788.18	1.304
308.15 K, x2 = 0.801	785.06	1.147
308.15 K, x2 = 0.901	781.06	1.01
313.15 K, x2 = 0	799.42	2.283
313.15 K, x2 = 0.101	797.95	2.105
313.15 K, x2 = 0.2	796.2	1.943
313.15 K, x2 = 0.3	794.26	1.779
313.15 K, x2 = 0.401	792.24	1.623
313.15 K, x2 = 0.5	789.89	1.452
313.15 K, x2 = 0.6	787.27	1.317
313.15 K, x2 = 0.7	784.11	1.181
313.15 K, x2 = 0.801	780.91	1.042
313.15 K, x2 = 0.901	776.81	0.921
318.15 K, x2 = 0	795.64	2.014
318.15 K, x2 = 0.101	794.14	1.865
318.15 K, x2 = 0.2	792.36	1.728
318.15 K, x2 = 0.3	790.38	1.59
318.15 K, x2 = 0.401	788.31	1.455
318.15 K, x2 = 0.5	785.91	1.308
318.15 K, x2 = 0.6	783.23	1.192
318.15 K, x2 = 0.7	780	1.072
318.15 K, x2 = 0.801	776.71	0.949
318.15 K, x2 = 0.901	772.51	0.841
323.15 K, x2 = 0	791.84	1.784
323.15 K, x2 = 0.101	790.29	1.658
323.15 K, x2 = 0.2	788.48	1.543
323.15 K, x2 = 0.3	786.46	1.426
323.15 K, x2 = 0.401	784.34	1.31
323.15 K, x2 = 0.5	781.88	1.181
323.15 K, x2 = 0.6	779.14	1.08
323.15 K, x2 = 0.7	775.83	0.975
323.15 K, x2 = 0.801	772.46	0.866
323.15 K, x2 = 0.901	768.16	0.771
328.15 K, x2 = 0	787.98	1.586
328.15 K, x2 = 0.101	786.4	1.48
328.15 K, x2 = 0.2	784.55	1.382
328.15 K, x2 = 0.3	782.49	1.283
328.15 K, x2 = 0.401	780.32	1.182
328.15 K, x2 = 0.5	777.8	1.07
328.15 K, x2 = 0.6	775	0.982
328.15 K, x2 = 0.7	771.63	0.889
328.15 K, x2 = 0.801	768.16	0.792
328.15 K, x2 = 0.901	763.76	0.707
